Laboratory results published in ChEMBL document CHEMBL5236578, “Structure-activity relationship study of 4,5-didehydroguadiscine, an aporphine alkaloid showing potent melanogenesis-inhibitory activity in B16 melanoma cells” (Bioorg Med Chem Lett, 2022).
Structures can show the parent of a compound that is named as a salt.

Assay: Anti-melanogenic activity in theophylline-stimulated mouse B16 melanoma 4A5 cells assessed as inhibition of melanogenesis
Assay type: functional, cell-based

IC50	SMILES
> 30 µM	CC(C)(c1ccccc1)c1nccc2ccccc12
7.5 µM	COc1ccc2c(c1)C(C)(C)c1nccc3cc(OC)cc-2c13
4.9 µM	COc1ccc2c(c1)C(C)(C)c1nccc3cc4c(c-2c13)OCO4
> 30 µM	COc1ccc2c(C(C)(C)c3ccccc3)nccc2c1
> 30 µM	COc1cccc(C(C)(C)c2nccc3cc4c(cc23)OCO4)c1
3.1 µM	CC1(C)c2ccccc2-c2cccc3ccnc1c23
> 30 µM	COc1cccc(C(C)(C)c2nccc3cc(OC)ccc23)c1
> 30 µM	CC(C)(c1ccccc1)c1nccc2cc3c(cc12)OCO3
5 µM	COc1cc2c3c(nccc3c1)C(C)(C)c1ccccc1-2
18.1 µM	COc1ccc2ccnc(C(C)(C)c3ccccc3)c2c1
6.5 µM	COc1cc2c(cc1OC)[C@@H](Cc1ccc(O)cc1)N(C)CC2
6.7 µM	CC1(C)c2ccccc2-c2c3c(cc4ccnc1c24)OCO3
4 µM	COc1ccc2ccnc3c2c1-c1ccccc1C3(C)C
174 µM	OC[C@H]1O[C@@H](Oc2ccc(O)cc2)[C@H](O)[C@@H](O)[C@@H]1O [ARBUTIN]

SMILES	IC50
COc1cc2c3c(c1OC)-c1ccccc1C[C@H]3N(C)CC2 [NUCIFERINE HYDROCHLORIDE]	7.1 µM

Assay: Potency index, ratio of arbutin IC50 to test compound IC50 for anti-melanogenic activity in theophylline-stimulated mouse B16 melanoma 4A5 cells assessed as inhibition of melanogenesis
Assay type: functional

SMILES	Ratio IC50
COc1ccc2c(c1)C(C)(C)c1nccc3cc4c(c-2c13)OCO4	40
